From PMC5876368, “Evaluation of a dimeric-cRGD peptide for targeted PET-CT imaging of peripheral angiogenesis in diabetic mice” (Scientific Reports, 2018)

Legend:
[1] = Biodistribution and clearance in mice (gamma well counting and PET-CT); format: in vivo; settings: one hour after jugular vein injection, gamma well counting
Method: One week after occlusion, 5 groups of animals were injected with 6.81 ± 0.536 MBq of ^64Cu-NOTA-PEG4-cRGD2 via the jugular vein and at various time points (30 min n = 3, 1 hr n = 3, 2 hr n = 3, 4 hr n = 3, and 24 hr n = 2), different organs were excised and subjected to gamma well counting. The mass and radioactivity of tissue sections were assessed with a Voyager Pro. (Ohaus, USA) and Wizard2 gamma well counter (PerkinElmer, USA) respectively. The ^64Cu signal was then corrected to account for background radioactivity, radioactive decay of the samples, and tissue weight.
(§1) One week after occlusion, DM and non-DM mice (n = 15) were injected with 6.81 ± 0.536 MBq of ^64Cu-NOTA-PEG4-cRGD2 via the jugular vein and 60 minutes later in vivo microPET-CT imaging was performed using a small animal dedicated Inveon system (Siemens Healthcare USA). […]
Skeletal muscles from both the ischemic and non-ischemic hindlimbs were excised and separated into distal and proximal sections based on the location of the ligature in the ischemic limb and anatomical landmarks in the non-ischemic limb. The mass and radioactivity of tissue sections were assessed with a Voyager Pro. […] The ^64Cu signal was then corrected to account for background radioactivity, radioactive decay of the samples, and tissue weight.

αV β3 integrin = target: T1, αV β3 integrin (Mus musculus, UniProt O54890+P43406); assay: PET-CT imaging and gamma well counting of hindlimb uptake after femoral artery ligation, DM vs non-DM mice; format: in vivo; settings: mice 1 week after femoral artery ligation
T1 construct: from tissue; host or cells: hindlimb skeletal muscle of live C57BL/6 mice (ischemic and non-ischemic, DM and non-DM)
T1 sequence (P43406 31-885 limits assumed): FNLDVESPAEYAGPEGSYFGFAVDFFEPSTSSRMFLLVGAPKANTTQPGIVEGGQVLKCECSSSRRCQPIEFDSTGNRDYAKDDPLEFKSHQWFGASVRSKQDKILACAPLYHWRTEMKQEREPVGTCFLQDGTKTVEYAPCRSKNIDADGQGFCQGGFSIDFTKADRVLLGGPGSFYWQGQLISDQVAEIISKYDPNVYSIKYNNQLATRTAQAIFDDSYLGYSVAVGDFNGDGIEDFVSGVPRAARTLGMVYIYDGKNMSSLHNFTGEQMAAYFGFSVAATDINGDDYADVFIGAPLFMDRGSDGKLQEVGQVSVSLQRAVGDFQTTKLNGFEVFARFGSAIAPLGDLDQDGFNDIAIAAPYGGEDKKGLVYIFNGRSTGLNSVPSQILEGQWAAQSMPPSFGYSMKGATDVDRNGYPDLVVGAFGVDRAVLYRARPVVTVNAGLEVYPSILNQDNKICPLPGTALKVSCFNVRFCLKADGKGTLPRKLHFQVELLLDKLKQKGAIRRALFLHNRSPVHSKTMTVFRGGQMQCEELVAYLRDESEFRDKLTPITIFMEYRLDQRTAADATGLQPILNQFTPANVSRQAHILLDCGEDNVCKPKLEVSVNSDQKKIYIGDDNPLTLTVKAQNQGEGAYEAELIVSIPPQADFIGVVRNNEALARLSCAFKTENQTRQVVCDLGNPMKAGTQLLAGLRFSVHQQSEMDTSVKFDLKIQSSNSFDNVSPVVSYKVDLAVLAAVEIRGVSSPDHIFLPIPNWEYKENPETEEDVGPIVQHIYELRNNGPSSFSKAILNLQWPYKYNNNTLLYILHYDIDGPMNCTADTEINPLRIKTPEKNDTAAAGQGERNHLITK
T1 sequence (P43406 887-1044 partner limits assumed): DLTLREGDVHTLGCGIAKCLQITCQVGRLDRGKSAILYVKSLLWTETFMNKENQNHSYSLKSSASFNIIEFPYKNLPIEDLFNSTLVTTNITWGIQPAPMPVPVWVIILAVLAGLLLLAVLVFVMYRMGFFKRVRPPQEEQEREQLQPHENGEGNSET
T1 sequence (O54890 26-787): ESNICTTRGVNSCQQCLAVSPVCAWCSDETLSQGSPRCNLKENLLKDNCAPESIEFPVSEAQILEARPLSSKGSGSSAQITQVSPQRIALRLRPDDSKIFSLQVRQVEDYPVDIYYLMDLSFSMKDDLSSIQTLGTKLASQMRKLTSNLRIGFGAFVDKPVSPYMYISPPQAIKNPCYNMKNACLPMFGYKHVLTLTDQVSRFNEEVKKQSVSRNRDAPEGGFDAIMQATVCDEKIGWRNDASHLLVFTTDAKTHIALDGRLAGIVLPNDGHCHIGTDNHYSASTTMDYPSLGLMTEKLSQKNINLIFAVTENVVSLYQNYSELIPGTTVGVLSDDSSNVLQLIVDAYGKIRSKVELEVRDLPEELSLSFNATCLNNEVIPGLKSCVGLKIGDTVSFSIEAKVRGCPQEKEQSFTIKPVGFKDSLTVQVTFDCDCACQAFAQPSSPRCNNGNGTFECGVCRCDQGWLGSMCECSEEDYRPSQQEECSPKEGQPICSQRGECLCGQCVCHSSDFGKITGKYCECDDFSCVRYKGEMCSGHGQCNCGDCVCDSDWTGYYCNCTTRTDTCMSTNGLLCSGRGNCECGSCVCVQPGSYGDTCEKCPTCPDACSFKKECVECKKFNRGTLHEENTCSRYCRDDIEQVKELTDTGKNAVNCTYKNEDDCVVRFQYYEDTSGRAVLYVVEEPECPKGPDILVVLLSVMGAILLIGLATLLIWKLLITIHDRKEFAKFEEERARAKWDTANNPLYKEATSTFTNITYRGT
Method: All animals underwent hindlimb occlusion of the right femoral artery and a sham operation on the left hindlimb, following previously-described procedures. Briefly, a small incision was made on the right leg to expose the femoral vasculature, and dual ligation of the femoral artery was performed distal to the profundus branch to induce unilateral hindlimb ischemia. All mice were allowed to recover for 7 days after surgery.
as §1, with “USA). An additional group of non-diabetic mice (n = 4) was injected with 7.21 ± 2.31 MBq of ^64Cu-acetate to study differential organ biodistribution of ^64Cu-NOTA-PEG4-cRGD2.” for “USA).”
The microPET and microCT images were reconstructed using the OSEM/3D algorithm (Siemens Healthcare USA) and the cone-beam technique (Cobra Exim), respectively. MicroPET images were fused with microCT images and quantified using a semiautomated approach developed and evaluated previously. […] To validate the accuracy of the quantitative targeted imaging approach, image-derived results were compared with the gamma well counting analysis of the corresponding tissue samples. […]

organ uptake in liver, gallbladder, kidneys and intestines [1]: > 20 %I.D./g
retention in ischemic relative to non-ischemic hindlimb (αV β3 integrin): comparable accumulation in both limbs
SMILES: CC(=O)[O-].CC(=O)[O-].[64Cu+2] [^64Cu-acetate]
